From patent US11000511B2, “Chemical compounds as antibiotics” (priority 2017, dated 2021)

Tests used:
[1] = target: T1, LasB elastase activity in dialysed supernatant from P. aeruginosa strain PA01 (Pseudomonas aeruginosa, UniProt P14756); test: Elastin Congo Red assay to determine % inhibition (Assay 1); assay type: biochemical; details: read-out: Elastin hydrolysis % inhibition @ 50/25 μM inhibitor concentration Assay 1
T1 construct: uses as source of enzyme dialysed supernatant from P. aeruginosa; endogenous in cells; host or cells: P. aeruginosa strain PA01 culture supernatant, filtered and dialysed
T1 sequence (P14756 198-498): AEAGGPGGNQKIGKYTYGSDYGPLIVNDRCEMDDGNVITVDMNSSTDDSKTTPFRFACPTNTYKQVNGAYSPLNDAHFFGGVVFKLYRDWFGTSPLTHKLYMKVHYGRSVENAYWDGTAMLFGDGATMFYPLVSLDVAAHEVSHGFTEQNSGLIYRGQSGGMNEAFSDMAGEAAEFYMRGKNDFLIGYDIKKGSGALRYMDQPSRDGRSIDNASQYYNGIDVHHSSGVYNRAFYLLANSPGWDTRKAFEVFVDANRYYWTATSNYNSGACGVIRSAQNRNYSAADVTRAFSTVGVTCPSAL
Protocol: (§1) Experiments were therefore conducted (1) to measure the potency of inhibition of compounds of the invention against purified Pseudomonas aeruginosa LasB enzyme and also experiments were conducted (2) to measure the ability of compounds of the invention to inhibit LasB-catalysed elastin degradation. The first assay uses a commercial fluorescent synthetic peptide and purified LasB enzyme. The LasB hydrolysis kinetics are measured allowing the determination of the IC50 and Ki of the inhibitors; the second is a more physiological assay using dialysed Pseudomonas aeruginosa supernatant as source of enzyme, plus its natural substrate Elastin. It is an “end point assay” that determines the percentage of LasB inhibition by each compound for one particular time point and inhibitor concentration. Technical details are described below:
The Elastin assay uses as source of enzyme dialysed supernatant from P. aeruginosa and the elastin congo red as substrate. The natural LasB substrate, elastin, is complexed with the congo red dye (Elastin Congo Red, ECR). The elastolysis activity from the culture supernatant will degrade elastin and release the congo red dye into the supernatant. This red dye release can be measured with a spectrophotometer. Some compounds of Formula (I) were assessed using the method of Assay 1 (described below). Other compounds of Formula (I) were assessed using the alternative but equivalent method of Assay 2 (described below).
Method (Assay 1): To determine LasB elastase activity and assess compound inhibition, an overnight culture of P. aeruginosa strain PA01 is diluted thousand-fold in LB medium. This diluted solution is incubated during 19 hours in a shaking incubator. Culture supernatants are recovered by centrifugation and filtrated through a […] filter. These supernatants are dialysed (filtration molecules <20 kDa) into a 50 mM Tris pH 7.4, 2.5 mM CaCl2 solution at 4° C. under agitation for 24 hours. Supernatant dialysed is then mixed volume/volume with the ECR suspension (20 mg/mL of ECR in 100 mM Tris buffer supplemented with 1 mM CaCl2) supplemented with TritonX 100 (final concentration of 0.01%) in presence of different concentrations of compound (routinely 50 and 25 μM). The mixed reaction is then incubated for 24 hours in a 37° shaking incubator. As a negative control, the mixed supernatant is replaced by Tris solution (50 mM Tris pH 7.4, 2.5 mM CaCl2). The reaction supernatant is recovered by centrifugation and the release of congo red is measured by its absorbance at OD520. Percentage inhibition is determined using the following equation: (OD520 value of DMSO SN−OD520 value of LB)−(OD520 value of Compound SN−OD520 value of LB)/(OD520 value of DMSO SN−OD520 value of LB)×100.

[2] = target: T2, purified LasB protein from P. aeruginosa (Pseudomonas aeruginosa, UniProt P14756); test: Fluorometric assay to determine Ki (Assay 1); assay type: biochemical; details: Ki (μM) Assay 1, purified LasB, substrate Abz-Ala-Gly-Leu-Ala-p-Nitro-Benzyl-Amide 250 μM, Ki calculated from IC50; inhibitor 0.006 to 200 μM
T2 construct: purchased Merck or Charles River Laboratories
T2 sequence (P14756 198-498): as above
Protocol: as §1
This assay uses commercially available substrate (Abz-Ala-Gly-Leu-Ala-p-Nitro-Benzyl-Amide (Ex: 340 nm, Em: 415 nm) from Peptide International) and purified LasB protein from P. aeruginosa (provided by Merck or Charles River Laboratories). It is performed to determine LasB elastase activity and assess compound inhibition in 96-well plate format. Some compounds of Formula (I) were assessed using the method of Assay 1 (described below). Other compounds of Formula (I) were assessed using the alternative but equivalent method of Assay 2 (described below).
Method: 10 to 140 ng/ml purified LasB is incubated with 250 μM Abz-Ala-Gly-Leu-Ala-p-Nitro-Benzyl-Amide in 50 mM Tris-HCl pH 7.4, 2.5 mM CaCl2), 0.01% of Triton X100 at 37° C. LasB activity (corresponding to fluorescence emission induced by substrate hydrolysis) is measured over 30 min at 37° C. with a fluorescence plate reader such as the Perkin Elmer Envision or similar. Different range of inhibitor concentrations are routinely assessed depending of inhibitor potency from 0.006 to 200 μM (Assay 1; 2-fold dilutions series) or from 0.0016 to 200 μM (Assay 2; 2-fold dilutions series) in order to determine IC50.
The equation used to calculate the Ki from IC50 is: Ki=IC50/(1+([S]/Km)) where [S]=250 μM and Km=214 μM.

O=C(O)CC1(C(=O)NCc2nc3c(s2)CNCC3)Cc2ccccc2C1 [Example 44, 2-[2-(4,5,6,7-tetrahydrothiazolo[5,4-c]pyridin-2-ylmethylcarbamoyl)indan-2-yl]acetic acid]
inhibition at 50 µM [1]: 15 to 30% | Ki [2]: 2 to 10 µM

CN1CCC(OC(=O)[C@H](Cc2c[nH]c3ccccc23)NC(=O)C2(CC(=O)O)Cc3ccccc3C2)CC1 [Example 45, 2-(2-{[(2S)-3-(1H-indol-3-yl)-1-[(1-methylpiperidin-4-yl)oxy]-1-oxopropan-2-yl]carbamoyl}-2,3-dihydro-1H-inden-2-yl)acetic acid]
inhibition at 50 µM [1]: > 60% | Ki [2]: < 0.3 µM

C[N+](C)(C)CCNC(=O)[C@H](Cc1c[nH]c2ccccc12)NC(=O)C1(CC(=O)O)Cc2ccccc2C1 [Example 46, (2-{[(1S)-2-(1H-indol-3-yl)-1-{[2-(trimethylammonio)ethyl]carbamoyl}ethyl]carbamoyl}-1,3-dihydroinden-2-yl)acetate]
inhibition at 50 µM [1]: 30 to 60% | Ki [2]: 2 to 10 µM

CC(C)(C)OC(=O)[C@H](Cc1c[nH]c2ccccc12)NC(=O)C1(CC(=O)O)Cc2ccccc2C1 [Example 47, (S)-2-(2-((1-(tert-butoxy)-3-(1H-indol-3-yl)-1-oxopropan-2-yl)carbamoyl)-2,3-dihydro-1H-inden-2-yl)acetic acid]
inhibition at 50 µM [1]: > 60% | Ki [2]: < 0.3 µM

NC(=O)[C@H](Cc1ccc(O)cc1)NC(=O)C1(CC(=O)O)Cc2ccccc2C1 [Example 48, (S)-2-(2-((1-amino-3-(4-hydroxyphenyl)-1-oxopropan-2-yl)carbamoyl)-2,3-dihydro-1H-inden-2-yl)acetic acid]
inhibition at 50 µM [1]: 30 to 60% | Ki [2]: 2 to 10 µM

O=C(O)CC1(C(=O)N[C@@H](Cc2ccc(O)cc2)C(=O)O)Cc2ccccc2C1 [Example 49, (2-(carboxymethyl)-2,3-dihydro-1H-indene-2-carbonyl)-L-tyrosine]
inhibition at 50 µM [1]: > 60% | Ki [2]: 0.3 to 2 µM

O=C(O)CC1(C(=O)N[C@@H](Cc2c[nH]c3ccccc23)C(=O)O)Cc2ccccc2C1 [Example 50, (2-(carboxymethyl)-2,3-dihydro-1H-indene-2-carbonyl)-L-tryptophan]
inhibition at 50 µM [1]: > 60% | Ki [2]: < 0.3 µM

O=C(O)CC1(C(=O)NCc2nc3ccccc3[nH]2)Cc2ccccc2C1 [Example 51, 2-(2-(((1H-benzo[d]imidazol-2-yl)methyl)carbamoyl)-2,3-dihydro-1H-inden-2-yl)acetic]
inhibition at 50 µM [1]: 15 to 30% | Ki [2]: 2 to 10 µM

NC(=O)[C@H](Cc1c[nH]c2ccccc12)NC(=O)C1(CC(=O)O)Cc2ccccc2C1 [Example 52, (S)-2-(2-((1-amino-3-(1H-indol-3-yl)-1-oxopropan-2-yl)carbamoyl)-2,3-dihydro-1H-inden-2-yl)acetic acid]
inhibition at 50 µM [1]: > 60% | Ki [2]: < 0.3 µM

COC(=O)[C@H](Cc1c[nH]c2ccccc12)NC(=O)C1(CC(=O)O)Cc2ccccc2C1 [Example 53, (S)-2-(2-((3-(1H-indol-3-yl)-1-methoxy-1-oxopropan-2-yl)carbamoyl)-2,3-dihydro-1H-inden-2-yl)acetic acid]
inhibition at 50 µM [1]: > 60% | Ki [2]: 0.3 to 2 µM

O=C(O)CC1(C(=O)NCc2nccs2)Cc2ccccc2C1 [Example 54, 2-(2-((thiazol-2-ylmethyl)carbamoyl)-2,3-dihydro-1H-inden-2-yl)acetic acid]
inhibition at 50 µM [1]: > 60% | Ki [2]: 0.3 to 2 µM

O=C(O)CC1(C(=O)NCc2ccc3ccccc3n2)Cc2ccccc2C1 [Example 55, 2-(2-((quinolin-2-ylmethyl)carbamoyl)-2,3-dihydro-1H-inden-2-yl)acetic acid]
inhibition at 50 µM [1]: > 60% | Ki [2]: 0.3 to 2 µM

Cn1c(CNC(=O)C2(CC(=O)O)Cc3ccccc3C2)nc2ccccc21 [Example 56, 2-(2-(((1-methyl-1H-benzo[d]imidazol-2-yl)methyl)carbamoyl)-2,3-dihydro-1H-inden-2-yl)acetic acid]
inhibition at 50 µM [1]: 30 to 60% | Ki [2]: 0.3 to 2 µM

O=C(O)CC1(C(=O)NCc2coc3ccccc23)Cc2ccccc2C1 [Example 57, 2-[2-(benzofuran-3-ylmethylcarbamoyl)indan-2-yl]acetic acid]
inhibition at 50 µM [1]: 30 to 60% | Ki [2]: 0.3 to 2 µM

O=C(O)CC1(C(=O)NCc2nc3c(F)cccc3s2)Cc2ccccc2C1 [Example 60, 2-(2-(((4-fluorobenzo[d]thiazol-2-yl)methyl)carbamoyl)-2,3-dihydro-1H-inden-2-yl)acetic acid]
inhibition at 50 µM [1]: > 60% | Ki [2]: < 0.3 µM

O=C(O)CC1(C(=O)NCc2nc3c(Br)cccc3s2)Cc2ccccc2C1 [Example 61, 2-(2-(((4-bromobenzo[d]thiazol-2-yl)methyl)carbamoyl)-2,3-dihydro-1H-inden-2-yl)acetic acid]
inhibition at 50 µM [1]: > 60% | Ki [2]: < 0.3 µM

COc1cccc2sc(CNC(=O)C3(CC(=O)O)Cc4ccccc4C3)nc12 [Example 62, 2-(2-(((4-methoxybenzo[d]thiazol-2-yl)methyl)carbamoyl)-2,3-dihydro-1H-inden-2-yl)acetic acid]
inhibition at 50 µM [1]: > 60% | Ki [2]: < 0.3 µM

O=C(O)CC1(C(=O)NCc2nc3c(I)cccc3s2)Cc2ccccc2C1 [Example 63, 2-(2-(((4-iodobenzo[d]thiazol-2-yl)methyl)carbamoyl)-2,3-dihydro-1H-inden-2-yl)acetic acid]
inhibition at 50 µM [1]: > 60% | Ki [2]: < 0.3 µM

CCOc1cccc2sc(CNC(=O)C3(CC(=O)O)Cc4ccccc4C3)nc12 [Example 64, 2-(2-(((4-ethoxybenzo[d]thiazol-2-yl)methyl)carbamoyl)-2,3-dihydro-1H-inden-2-yl)acetic acid]
inhibition at 50 µM [1]: > 60% | Ki [2]: 0.3 to 2 µM

Cc1cccc2sc(CNC(=O)C3(CC(=O)O)Cc4ccccc4C3)nc12 [Example 65, 2-(2-(((4-methylbenzo[d]thiazol-2-yl)methyl)carbamoyl)-2,3-dihydro-1H-inden-2-yl)acetic acid]
inhibition at 50 µM [1]: > 60% | Ki [2]: < 0.3 µM

O=C(O)CC1(C(=O)NCc2nc3c(N4CCOCC4)cccc3s2)Cc2ccccc2C1 [Example 66, 2-(2-(((4-morpholinobenzo[d]thiazol-2-yl)methyl)carbamoyl)-2,3-dihydro-1H-inden-2-yl)acetic acid]
inhibition at 50 µM [1]: > 60% | Ki [2]: 0.3 to 2 µM

CN(C)C1CN(c2ccc3nc(CNC(=O)C4(CC(=O)O)Cc5ccccc5C4)sc3c2)C1 [Example 67, 2-(2-(((6-(3-(dimethylamino)azetidin-1-yl)benzo[d]thiazol-2-yl)methyl)carbamoyl)-2,3-dihydro-1H-inden-2-yl)acetic acid]
inhibition at 50 µM [1]: > 60% | Ki [2]: 0.3 to 2 µM

C[N+](C)(C)C1CN(c2ccc3nc(CNC(=O)C4(CC(=O)[O-])Cc5ccccc5C4)sc3c2)C1 [Example 68, 2-[2-[[6-[3-(trimethylammonio)azetidin-1-yl]-1,3-benzothiazol-2-yl]methylcarbamoyl]indan-2-yl]acetate]
inhibition at 50 µM [1]: 30 to 60% | Ki [2]: 0.3 to 2 µM

NCCNc1ccc2nc(CNC(=O)C3(CC(=O)O)Cc4ccccc4C3)sc2c1 [Example 69, 2-[2-[[6-(2-aminoethylamino)-1,3-benzothiazol-2-yl]methylcarbamoyl]indan-2-yl]acetic acid]
inhibition at 50 µM [1]: > 60% | Ki [2]: 0.3 to 2 µM
